Data as given in patent US8414989B2, “Cyclodextrin compositions, articles, and methods” (Cellresin Technologies, LLC, priority 2011, dated 2013).

What was measured:
[1] = Example 10: 1-MCP headspace release from inkjet printed multilayer and monolayer films; assay type: physicochemical; settings: 250 mL bottle, 100 μL water
Text: The ink containing 4 wt-% 1-MCP/c/α-CD from Example 9 was loaded back into the previously emptied cartridge. After refilling the cartridge, it was installed into a HP Inkjet 1600C printer (obtained from the Hewlett-Packard Company of Palo Alto, Calif.) and the calibration or head cleaning function was run. A medium density, black cross-hatch pattern obtained from Microsoft EXCEL software program 2003 (obtained from the Microsoft Corporation of Redman, Wash.) was used to format the entire printable page. The EXCEL pattern image was printed onto 3M, CG3460 Transparency Film (polyester film 120 microns thick for HP inkjet printers; obtained from the 3M Company of St. Paul, Minn.) using the dried, milled ink containing 4 wt-% 1-MCP/c/α-CD of Example 9. Immediately after printing, the printed side of the transparency film was overlaid with a 25 μm polyethylene film and then passed by hand about 10 cm beneath a medium pressure mercury arc lamp operating at 79 watts per cm for 3 seconds exposure to the lamp, with the polyethylene side facing the lamp. The methodology simulates a multilayer flexible-package where the inner surface of an outer, transparent, layer of the multilayer flexible material was printed (referred to as reverse printing). The printed surface was then laminated to other layers. The outside layer itself serves to protect the ink from abuse.
The following technique was designed to measure the permeability of 1-MCP, which was released from the reverse inkjet printed 3M Transparency Film, through PE film as the “inner layer” of a multilayer produce package. In a multilayer produce package, as the humidity rises inside the package by respiration of fresh agricultural products, the water vapor reaches a concentration that allows it to diffuse to the outside of the package. In this example, water also diffuses through the ink layer containing 1-MCP/c/α-CD. The reverse printed ink on the PET film releases 1-MCP which diffuses through the PE film into the interior of package (headspace) under a gradient of low 1-MCP concentration inside the bottle headspace and high 1-MCP concentration within the multilayer structure.
Using a paper cutter, a 5.5 cm by 16 cm rectangle (88 cm^2) was cut from the multilayer structure of the printed, cured ink on the PET sheet overlaid with PE. The rectangle was placed in a 250 mL serum bottle. The bottle was then sealed with a TEFLON® faced silicone septa. Then 100 μL of deionized water was injected into the bottle. […] Bottle headspace was analyzed at 0.17, 0.5, 1, 2, 4, and 24 hours after the injection of water using the technique employed in Example 3. The results in Table 8 illustrate 1-MCP headspace concentration as a function of time for the “multilayer” film.
A second piece of PET transparency film was printed as in Example 9 except that the transparency film was not covered with PE film; the printed ImTech UVBLK Series 912 ink was cured on the PET film surface using a medium pressure mercury arc lamp operating at 79 watts per cm in the same manner as for Example 9. Then, using a paper cutter, a 1.2 cm by 16 cm rectangle (19 cm^2) was cut from the sheet. The rectangle was placed in 250 mL serum bottle. The bottle was then sealed with a TEFLON® faced silicone septa. Then 100 μL of deionized water was injected into the bottle. […] Bottle headspace was analyzed at 0.17, 0.5, 1, 2, 4, and 24 hours after the injection of water using the technique employed in Example 3. The headspace concentration of 1-MCP as a function of time is also reported in Table 9 for the “monolayer” film.

[2] = Example 5: 1-MCP headspace release versus wt-% 1-MCP/c/α-CD and time; assay type: physicochemical; settings: 5 cm x 10 cm, 250 mL bottle, water injected, average
Method: Using a razor blade, six 5 cm×10 cm rectangles were cut from the coated portions of 20 cm by 20 cm sheets prepared as in Example 3 and having 1.0 wt-%, 2.0 wt-% and 4.0 wt-% 1-MCP/c/α-CD, and the coated rectangles were cured according to the technique of Example 2. The rectangles were individually placed in 250 mL serum bottles. The bottles were sealed with TEFLON® faced silicone septa. Then […] of deionized water was injected into each bottle. […] Bottle headspace was analyzed at 4, 8, 24 and 48 hours after the injection of water, using the technique of Example 3. The results are provided in Table 4 and FIG. 4 and give the average headspace concentration and standard deviation for the different wt-% 1-MCP/c/α-CD coatings as a function of time.

[3] = Control Example A: dissociation of 1-MCP from supplied 1-MCP/c/α-CD powder as a function of added water; assay type: physicochemical; settings: for Headspace concentration of 1-MCP: 0.1 g 1-MCP/c/α-CD powder, 250 mL bottle, shaken 1 hour, about 20 C
Method: A sample of 1-MCP/c/α-CD powder was obtained (AgroFresh of Spring House, Pa.). According to the supplier's specification sheet, 1-MCP was 4.7 wt % of α-CD or 88.7 wt % 1-MCP complex based on a theoretical 1:1 molar ratio of 1-MCP to α-CD; this corresponds to a resulting headspace concentration of 8,600 ppm. A series of tests were conducted to measure the dissociation of 1-MCP from the supplied 1-MCP/c/α-CD as a function of added water. First, 0.1 g aliquots of the supplied 1-MCP/c/α-CD powder were added to each of 5, 250 mL bottles, which were then capped with TEFLON® faced septa. Varying amounts of water were added to the bottles by syringe, and then the bottles were mechanically shaken for one hour, followed by headspace measurement for 1-MCP according to the procedure of Example 3. The amounts of water added per 0.1 g of the supplied 1-MCP/c/α-CD complex, and the resulting headspace measurements after 1 hour at about 20 C, are shown in Table 6.
A polynomial regression was used to calculate the dissociation at 100% RH in the headspace for the five samples of Table 6 (i.e., 4.3 milligrams water per 250 mL volume, see Example 8 for source and calculation of this information). The calculated amount of dissociated 1-MCP at 100% RH was 18 wt-%.

[4] = cited from earlier work

**Q.** Which “Headspace concentration of 1-MCP” value ([1]; 19 cm^2 Monolayer (printed PET, no PE film), 0.17 hours) does the source give for `CC1=CC1` [1-MCP, 1-methylcyclopropene] here?
**A.** 0.50 ppm (v/v)

**Q.** And the “Headspace concentration of 1-MCP” value ([1]; 19 cm^2 Monolayer (printed PET, no PE film), 0.5 hours)?
**A.** 0.52 ppm (v/v)

**Q.** And the “Headspace concentration of 1-MCP” value ([1]; 19 cm^2 Monolayer (printed PET, no PE film), 1 hour)?
**A.** 0.50 ppm (v/v)

**Q.** What about the “Headspace concentration of 1-MCP” value ([1]; 19 cm^2 Monolayer (printed PET, no PE film), 2 hours) of the same compound?
**A.** 0.51 ppm (v/v)

**Q.** What about the “Headspace concentration of 1-MCP” value ([1]; 19 cm^2 Monolayer (printed PET, no PE film), 4 hours) of the same compound?
**A.** 0.52 ppm (v/v)

**Q.** What about the “Headspace concentration of 1-MCP” value ([1]; 19 cm^2 Monolayer (printed PET, no PE film), 24 hours) of the same compound?
**A.** 0.49 ppm (v/v)

**Q.** What about the “Headspace concentration of 1-MCP” value ([1]; 88 cm^2 Multilayer (inkjet printed PET overlaid with 25 μm PE), 0.17 hours) of the same compound?
**A.** 0.25 ppm (v/v)

**Q.** And the “Headspace concentration of 1-MCP” value ([1]; 88 cm^2 Multilayer (inkjet printed PET overlaid with 25 μm PE), 0.5 hours)?
**A.** 0.46 ppm (v/v)

**Q.** What about the “Headspace concentration of 1-MCP” value ([1]; 88 cm^2 Multilayer (inkjet printed PET overlaid with 25 μm PE), 1 hour) of the same compound?
**A.** 1.1 ppm (v/v)

**Q.** What about the “Headspace concentration of 1-MCP” value ([1]; 88 cm^2 Multilayer (inkjet printed PET overlaid with 25 μm PE), 2 hours) of the same compound?
**A.** 1.5 ppm (v/v)

**Q.** What about the “Headspace concentration of 1-MCP” value ([1]; 88 cm^2 Multilayer (inkjet printed PET overlaid with 25 μm PE), 4 hours) of the same compound?
**A.** 3.2 ppm (v/v)

**Q.** What about the “Headspace concentration of 1-MCP” value ([1]; 88 cm^2 Multilayer (inkjet printed PET overlaid with 25 μm PE), 24 hours) of the same compound?
**A.** 8.3 ppm (v/v)

**Q.** What about the “1-MCP in Headspace” value ([2]; 1 wt-% 1-MCP/c/α-CD coated, 4 hours) of the same compound?
**A.** 0.96 ppm-v/v

**Q.** What about the “1-MCP in Headspace” value ([2]; 1 wt-% 1-MCP/c/α-CD coated, 8 hours) of the same compound?
**A.** 2.0 ppm-v/v

**Q.** What about the “1-MCP in Headspace” value ([2]; 1 wt-% 1-MCP/c/α-CD coated, 24 hours) of the same compound?
**A.** 3.6 ppm-v/v

**Q.** And the “1-MCP in Headspace” value ([2]; 1 wt-% 1-MCP/c/α-CD coated, 48 hours)?
**A.** 4.0 ppm-v/v

**Q.** What about the “1-MCP in Headspace” value ([2]; 2 wt-% 1-MCP/c/α-CD coated, 4 hours) of the same compound?
**A.** 3.5 ppm-v/v

**Q.** And the “1-MCP in Headspace” value ([2]; 2 wt-% 1-MCP/c/α-CD coated, 8 hours)?
**A.** 7.8 ppm-v/v

**Q.** What about the “1-MCP in Headspace” value ([2]; 2 wt-% 1-MCP/c/α-CD coated, 24 hours) of the same compound?
**A.** 17.8 ppm-v/v

**Q.** And the “1-MCP in Headspace” value ([2]; 2 wt-% 1-MCP/c/α-CD coated, 48 hours)?
**A.** 21.2 ppm-v/v

**Q.** And the “1-MCP in Headspace” value ([2]; 4 wt-% 1-MCP/c/α-CD coated, 4 hours)?
**A.** 7.5 ppm-v/v

**Q.** And the “1-MCP in Headspace” value ([2]; 4 wt-% 1-MCP/c/α-CD coated, 8 hours)?
**A.** 13.5 ppm-v/v

**Q.** What about the “1-MCP in Headspace” value ([2]; 4 wt-% 1-MCP/c/α-CD coated, 24 hours) of the same compound?
**A.** 24.0 ppm-v/v

**Q.** And the “1-MCP in Headspace” value ([2]; 4 wt-% 1-MCP/c/α-CD coated, 48 hours)?
**A.** 28.0 ppm-v/v

**Q.** What about the “Headspace concentration of 1-MCP” value ([3]; 0.25 g H2O) of the same compound?
**A.** 3,050 ppm (v/v)

**Q.** What about the “Headspace concentration of 1-MCP” value ([3]; 0.5 g H2O) of the same compound?
**A.** 4,750 ppm (v/v)

**Q.** What about the “Headspace concentration of 1-MCP” value ([3]; 1.0 g H2O) of the same compound?
**A.** 6,850 ppm (v/v)

**Q.** And the “Headspace concentration of 1-MCP” value ([3]; 2.0 g H2O)?
**A.** 9,850 ppm (v/v)

**Q.** And the “Headspace concentration of 1-MCP” value ([3]; 3.0 g H2O)?
**A.** 10,610 ppm (v/v)

**Q.** And the “1-MCP dissociated from complex” value ([3]; 1.0 grams of water per 0.10 grams 1-MCP/c/α-CD)?
**A.** 66%

**Q.** What about the “calculated amount of dissociated 1-MCP at 100% RH” value ([3]; polynomial regression of the five samples of Table 6, 4.3 milligrams water per 250 mL volume) of the same compound?
**A.** 18 wt-%

**Q.** And the “resulting headspace concentration corresponding to supplier's specification” value ([3]; supplier's specification sheet 4.7 wt % 1-MCP, 0.1 g in 250 mL bottle)?
**A.** 8,600 ppm

**Q.** What about the 1-MCP remained complexed ([4]; 1-MCP/c/α-CD, end of the experiments) of the same compound?
**A.** ~83.4%

**Q.** What about the “total complexed 1-MCP dissociated at the end of the experiments, average” value ([4]; 1-MCP/c/α-CD, humidity-triggered dissociation) of the same compound?
**A.** ~17.6%

**Q.** What about the “complexed 1-MCP released from 1-MCP/c/α-CD” value ([4]; 100% relative humidity) of the same compound?
**A.** less than 20%
